This passage reports IC50 results from patent US8637516B2 (IRM LLC, priority 2010, dated 2014).

One experiment concerns parental Ba/F3 cells. Put plainly: Proliferation of parental (untransformed, wt) Ba/F3 cells (BAF3/WT). The conditions noted are these: Mus musculus, Table 1, parental cells with IL3, 48 hours. Type of experiment: cell-based, murine. In a few lines:
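Parental Ba/F3 cells, maintained with mouse IL-3, were plated at 700 cells/well with compound (0.17 nM to 10 uM, 3-fold dilutions). After 48 h at 37 °C, proliferation was read by Bright-Glo luminescence.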

For experiment [1], the target named is T1, Ba/F3 cells transformed with human Tel-TrkA (Homo sapiens, UniProt P04629).
T1 construct: expressed in transfected cells; host or cells: Ba/F3 murine hematopoietic progenitor cells (luciferase expressing); the other entry of the earlier key: ETV6 (P41212, Transcription factor ETV6)
T1 sequence (P04629 510-796 limits assumed): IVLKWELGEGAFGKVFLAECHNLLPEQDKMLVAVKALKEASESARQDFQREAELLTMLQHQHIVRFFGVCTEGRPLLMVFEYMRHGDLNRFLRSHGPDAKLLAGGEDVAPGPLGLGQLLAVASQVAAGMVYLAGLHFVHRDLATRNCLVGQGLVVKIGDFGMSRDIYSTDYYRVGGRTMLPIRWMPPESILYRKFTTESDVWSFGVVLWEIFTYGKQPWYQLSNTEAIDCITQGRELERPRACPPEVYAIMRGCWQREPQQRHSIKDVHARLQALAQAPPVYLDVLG
The experiment can be described thus: Proliferation of Ba/F3 cells transformed with human Tel-TrkA (Ba/F3 Tel-TrkA). Type of experiment: cell-based. The note with it: Table 1; 48 hours, Bright Glo luminescence; read-out: Ba/F3 Tel-TrkA. An excerpt:
Compound dilutions were made in 384 well plates.
The emited luminiscence is quantified using ViewLux (PerkinElmer).

On to `CC(=O)N1CC[C@@H](NC(=O)c2cnc3ccc(N4CCC[C@@H]4c4cccc(F)c4)nn23)C1` [X-66], for which the results for the IC50 (in the experiment on parental Ba/F3 cells; in experiment [1]) were above 10 µM and 737 nM, respectively.
For `O=C(NCCCN1CCOCC1)c1cnc2ccc(N3CCC[C@@H]3c3cccc(F)c3)nn12` [X-58], the IC50 with parental Ba/F3 cells was above 10 µM; in experiment [1] it was 390 nM.
The like results for `O=C(N[C@H]1CCCC[C@@H]1O)c1cnc2ccc(N3CCC[C@@H]3c3cccc(F)c3)nn12` [X-82] were, in that order, above 10 µM and 89 nM.
For `CC(=O)OCC(=O)Nc1cnc2ccc(N3CCC[C@@H]3c3cccc(F)c3)nn12` [X-172, (R)-2-(6-(2-(3-fluorophenyl)pyrrolidin-1-yl)imidazo[1,2-b]pyridazin-3-ylamino)-2-oxoethyl acetate], the IC50 in the experiment with parental Ba/F3 cells was above 10 µM; in experiment [1] it was 38 nM.
Take `CS(=O)(=O)N1CCC(NC(=O)c2cnc3ccc(N4CCC[C@@H]4c4cccc(F)c4)nn23)CC1` [X-71, (R)-6-(2-(3-fluorophenyl)pyrrolidin-1-yl)-N-(1-(methylsulfonyl)piperidin-4-yl)imidazo[1,2-b]pyridazine-3-carboxamide]: the IC50 in the experiment on parental Ba/F3 cells is above 10 µM; in experiment [1], 22 nM.
`O=C(NCc1nc2ccccc2s1)c1cnc2ccc(N3CCC[C@@H]3c3cccc(F)c3)nn12` [X-38]: the IC50 in the experiment on parental Ba/F3 cells is above 10 µM; in experiment [1], 196 nM.
`O=C(c1cnc2ccc(N3CCC[C@@H]3c3cccc(F)c3)nn12)C(F)F` [X-124]: the figures for the IC50 (with parental Ba/F3 cells; in experiment [1]) were above 10 µM and 844 nM, respectively.
As to `NC(=O)CNC(=O)c1cnc2ccc(N3C[C@@H](F)C[C@@H]3c3cccc(F)c3)nn12` [X-117], the IC50 was above 10 µM with parental Ba/F3 cells and 64 nM in experiment [1].
For `O=C(NCCO)c1cnc2ccc(N3CCC[C@@H]3c3cccc(F)c3)nn12` [X-79], the IC50 is above 10 µM with parental Ba/F3 cells and 61 nM in experiment [1].
For the molecule `CC(NC(=O)c1cnc2ccc(N3CCC[C@@H]3c3cccc(F)c3)nn12)c1ccc(F)cc1` (stereo partly drawn) [X-42], the IC50 is above 9.57 µM in the experiment with parental Ba/F3 cells and 127 nM in experiment [1].
The like results for `O=C(NC1CC1)c1cnc2ccc(N3CCC[C@@H]3c3cccc(F)c3)nn12` [X-44] were, in that order, above 10 µM and 11 nM.
The like results for `[2H]C1([2H])N(c2ccc3ncc(C(=O)OCC)n3n2)C([2H])(c2cccc(F)c2)C([2H])([2H])C1([2H])[2H]` (stereo not drawn) [X-163] were, in that order, above 10 µM and 79 nM.
In the case of `CC(C)(C)[C@@H](CO)NC(=O)c1cnc2ccc(N3CCC[C@@H]3c3cccc(F)c3)nn12` [X-103], the values for the IC50 (with parental Ba/F3 cells; in experiment [1]) were above 10 µM and 379 nM, respectively.
`CCNC(=O)c1cnc2ccc(N3CCCC3c3cccc(F)c3)nn12` (stereo not drawn) [X-21]: the IC50 with parental Ba/F3 cells is above 10 µM; in experiment [1], 42 nM.
For the molecule `CO/N=C(/N)c1cnc2ccc(N3CCC[C@@H]3c3cccc(F)c3)nn12` [X-228, (R)-6-(2-(3-fluorophenyl)pyrrolidin-1-yl)-N′-methoxyimidazo[1,2-b]pyridazine-3-carboximidamide], the IC50 with parental Ba/F3 cells was above 10 µM; in experiment [1], 132 nM.
Consider `CN(C)CCONC(=O)c1cnc2ccc(N3CCC[C@@H]3c3cccc(F)c3)nn12` [X-146], for which the figures for the IC50 (with parental Ba/F3 cells; in experiment [1]) were above 10 µM and 302 nM, respectively.
For the molecule `NS(=O)(=O)N1CCC(NC(=O)c2cnc3ccc(N4CCC[C@@H]4c4cccc(F)c4)nn23)CC1` [X-29, (R)-6-(2-(3-fluorophenyl)pyrrolidin-1-yl)-N-(1-sulfamoylpiperidin-4-yl)imidazo[1,2-b]pyridazine-3-carboxamide], the IC50 in the experiment with parental Ba/F3 cells was above 10 µM; in experiment [1], 239 nM.
For the molecule `CCOC(=O)c1cnc2ccc(N3C[C@H](O)C[C@@H]3c3cccc(F)c3)nn12` [X-160, ethyl 6-((2R,4R)-2-(3-fluorophenyl)-4-hydroxypyrrolidin-1-yl)imidazo[1,2-b]pyridazine-3-carboxylate], the IC50 with parental Ba/F3 cells is above 10 µM; in experiment [1], 73 nM.
As to `[2H][C@]1(c2cccc(F)c2)CCCN1c1ccc2ncc(C(N)=O)n2n1` [X-9], the IC50 with parental Ba/F3 cells was above 10 µM; in experiment [1], 12 nM.
Consider `NC(=O)c1cnc2ccc(N3C[C@@H](F)C[C@@H]3c3ccc(F)c(F)c3)nn12` [X-240], for which the IC50 with parental Ba/F3 cells was above 10 µM; in experiment [1] it was 198 nM.
The like results for `COC(=O)NC(=O)c1cnc2ccc(N3CC(F)(F)C[C@@H]3c3cccc(F)c3)nn12` [X-249] were, in that order, above 10 µM and 18 nM.
`O=C(NOC1CCCCO1)c1cnc2ccc(N3CCC[C@@H]3c3cccc(F)c3)nn12` (stereo partly drawn) [X-144]: the IC50 with parental Ba/F3 cells was above 10 µM; in experiment [1], 128 nM.
Regarding `CC(=O)O[C@@H](C)C(=O)N1CCC(NC(=O)c2cnc3ccc(N4CCC[C@@H]4c4cccc(F)c4)nn23)CC1` [X-33], the IC50 in the experiment on parental Ba/F3 cells is above 10 µM; in experiment [1] it was 105 nM.
As to `O=C(NCCC(F)(F)F)c1cnc2ccc(N3CCC[C@@H]3c3cccc(F)c3)nn12` [X-76], the IC50 in the experiment with parental Ba/F3 cells is above 10 µM; in experiment [1] it was 34 nM.
The like results for `COC(=O)[C@@H](CO)NC(=O)c1cnc2ccc(N3CCC[C@@H]3c3cccc(F)c3)nn12` [X-98] were, in that order, above 10 µM and 354 nM.
In the case of `O=C(NC1CCC1)c1cnc2ccc(N3CCC[C@@H]3c3cccc(F)c3)nn12` [X-46], the results for the IC50 (in the experiment with parental Ba/F3 cells; in experiment [1]) were above 10 µM and 20 nM, respectively.
For `CNC(=O)c1cnc2ccc(N3CCC[C@@H]3c3cccc(F)c3)nn12` [X-43], the IC50 in the experiment on parental Ba/F3 cells was above 10 µM; in experiment [1], 46 nM.
With `O=C(NCCN1CCOCC1)c1cnc2ccc(N3CCC[C@@H]3c3cccc(F)c3)nn12` [X-52], the IC50 in the experiment with parental Ba/F3 cells is above 10 µM; in experiment [1] it was 58 nM.
The like results for `C[C@@H]1CN(c2ccc3ncc(C#N)n3n2)[C@@H](c2cccc(F)c2)C1(F)F` [X-4, 6-((2S,4R)-3,3-difluoro-2-(3-fluorophenyl)-4-methylpyrrolidin-1-yl)imidazo[1,2-b]pyridazine-3-carbonitrile] were, in that order, above 10 µM and 155 nM.
Take `NC(=O)NC(=O)c1cnc2ccc(N3CC(F)(F)C[C@@H]3c3cccc(F)c3)nn12` [X-248, (R)-N-carbamoyl-6-(4,4-difluoro-2-(3-fluorophenyl)pyrrolidin-1-yl)imidazo[1,2-b]pyridazine-3-carboxamide]: the IC50 is above 10 µM in the experiment on parental Ba/F3 cells and 19 nM in experiment [1].
Turning to `CN1CCN(NC(=O)c2cnc3ccc(N4CCC[C@@H]4c4cccc(F)c4)nn23)CC1` [X-154, (R)-6-(2-(3-fluorophenyl)pyrrolidin-1-yl)-N-(4-methylpiperazin-1-yl)imidazo[1,2-b]pyridazine-3-carboxamide], the IC50 with parental Ba/F3 cells was above 10 µM; in experiment [1], 153 nM.
As for `CS(=O)(=O)N1CC(NC(=O)c2cnc3ccc(N4CCC[C@@H]4c4cccc(F)c4)nn23)C1` [X-68], the IC50 is above 10 µM in the experiment with parental Ba/F3 cells and 38 nM in experiment [1].
On to `CC(C)(C)ONC(=O)c1cnc2ccc(N3CCC[C@@H]3c3cccc(F)c3)nn12` [X-145], for which the results for the IC50 (with parental Ba/F3 cells; in experiment [1]) were above 10 µM and 33 nM, respectively.
For `O=C(N[C@@H]1CCC[C@H]1O)c1cnc2ccc(N3CCC[C@@H]3c3cccc(F)c3)nn12` [X-81], the IC50 in the experiment with parental Ba/F3 cells is above 10 µM; in experiment [1], 12 nM.
Consider `O=C(NOCC1CC1)c1cnc2ccc(N3CCC[C@@H]3c3cccc(F)c3)nn12` [X-143], for which the IC50 was above 10 µM in the experiment on parental Ba/F3 cells and 45 nM in experiment [1].
The like results for `COC(=O)Nc1cnc2ccc(N3CCC[C@@H]3c3cccc(F)c3)nn12` [X-235] were, in that order, above 10 µM and 586 nM.
The like results for `CC(C)(C)OC(=O)N1CC(NC(=O)c2cnc3ccc(N4CCC[C@@H]4c4cccc(F)c4)nn23)C1` [X-61] were, in that order, above 10 µM and 144 nM.
`O=C(NCCC1CCCO1)c1cnc2ccc(N3CCC[C@@H]3c3cccc(F)c3)nn12` (stereo partly drawn) [X-23]: the IC50 with parental Ba/F3 cells was above 10 µM; in experiment [1], 92 nM.
In the case of `O=C(NC1CCCCC1)c1cnc2ccc(N3CCC[C@@H]3c3cccc(F)c3)nn12` [X-49], the IC50 in the experiment with parental Ba/F3 cells was above 9.34 µM; in experiment [1], 22 nM.
For the molecule `[2H]C1([2H])N(c2ccc3ncc(C(N)=O)n3n2)C([2H])(c2cccc(F)c2)C([2H])([2H])C1([2H])[2H]` (stereo not drawn) [X-13], the values for the IC50 (in the experiment on parental Ba/F3 cells; in experiment [1]) were above 10 µM and 110 nM, respectively.
For `O=C(Nc1cnc2ccc(N3CC(F)(F)C[C@@H]3c3cccc(F)c3)nn12)Oc1ccccc1` [X-238], the IC50 in the experiment on parental Ba/F3 cells is above 10 µM; in experiment [1], 445 nM.
For `CC(C)(CO)NC(=O)c1cnc2ccc(N3CCC[C@@H]3c3cccc(F)c3)nn12` [X-83], the figures for the IC50 (in the experiment with parental Ba/F3 cells; in experiment [1]) were above 10 µM and 20 nM, respectively.
With `O=C(NCC(F)(F)F)c1cnc2ccc(N3CCCC3c3cccc(F)c3)nn12` (stereo not drawn) [X-111], the IC50 was above 10 µM in the experiment with parental Ba/F3 cells and 13 nM in experiment [1].
On to `O=C(NCc1cccc(N2CCOCC2)n1)c1cnc2ccc(N3CCC[C@@H]3c3cccc(F)c3)nn12` [X-25], for which the IC50 is above 8.99 µM in the experiment on parental Ba/F3 cells and 37 nM in experiment [1].
Consider `CC(C)S(=O)(=O)N1CCC(NC(=O)c2cnc3ccc(N4CCC[C@@H]4c4cccc(F)c4)nn23)CC1` [X-32], for which the IC50 in the experiment with parental Ba/F3 cells was above 10 µM; in experiment [1], 19 nM.
For `CCOC(=O)c1cnc2ccc(N3CCC(=O)C3c3cccc(F)c3)nn12` (stereo not drawn) [X-159, ethyl 6-(2-(3-fluorophenyl)-3-oxopyrrolidin-1-yl)imidazo[1,2-b]pyridazine-3-carboxylate], the IC50 is above 10 µM in the experiment on parental Ba/F3 cells and 251 nM in experiment [1].
As for `CCOC(=O)N1CCC(NC(=O)c2cnc3ccc(N4CCC[C@@H]4c4cccc(F)c4)nn23)CC1` [X-50], the results for the IC50 (in the experiment on parental Ba/F3 cells; in experiment [1]) were above 10 µM and 40 nM, respectively.
The like results for `O=C(NCC(F)(F)C(F)(F)F)c1cnc2ccc(N3CCC[C@H]3c3cccc(F)c3)nn12` [X-60] were, in that order, above 10 µM and 35 nM.
